# Target: T1, MsLAC1 (Miscanthus sinensis, UniProt A0A5B8YT74)
# T1 construct: recombinant, secreted from Pichia pastoris X33 (pPICZalphaA, alpha-factor, MYC and HIS tags)
# T1 sequence (A0A5B8YT74 32-583): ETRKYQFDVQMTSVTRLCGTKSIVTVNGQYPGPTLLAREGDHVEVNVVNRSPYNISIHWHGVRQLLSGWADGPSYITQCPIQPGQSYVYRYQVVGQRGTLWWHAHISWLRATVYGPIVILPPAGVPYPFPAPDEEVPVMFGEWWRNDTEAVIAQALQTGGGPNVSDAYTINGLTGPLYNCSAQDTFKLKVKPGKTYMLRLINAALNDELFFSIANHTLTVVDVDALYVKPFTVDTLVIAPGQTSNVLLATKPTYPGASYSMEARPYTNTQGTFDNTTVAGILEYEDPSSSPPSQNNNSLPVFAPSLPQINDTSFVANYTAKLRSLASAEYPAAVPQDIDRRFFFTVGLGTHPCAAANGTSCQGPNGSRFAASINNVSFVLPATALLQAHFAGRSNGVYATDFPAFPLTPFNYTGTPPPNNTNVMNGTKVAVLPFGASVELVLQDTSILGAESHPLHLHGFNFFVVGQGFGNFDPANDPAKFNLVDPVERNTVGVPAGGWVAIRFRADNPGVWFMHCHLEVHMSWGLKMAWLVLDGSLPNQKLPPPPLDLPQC
# Test: UV-Vis spectra over time ([…]-650 nm)
# Format: biochemical
# Settings: 0.5 mM substrate, 0.02 U enzyme, 50 mM sodium acetate pH 5.0, 30 °C
smiles,measurement,value
COc1cc(/C=C/CO)ccc1O [coniferyl alcohol],UV-Vis spectra over time (250-650 nm),recombinant MsLAC1 enzyme was able to oxidize all supplemented monolignols
